Data on four molecules can be found in US20260325540A1 (priority 2023, published 2026).

Some results are limits rather than exact numbers.

Sequence of HCoV-229E 3CL protease (P0C6U2 2966-3267): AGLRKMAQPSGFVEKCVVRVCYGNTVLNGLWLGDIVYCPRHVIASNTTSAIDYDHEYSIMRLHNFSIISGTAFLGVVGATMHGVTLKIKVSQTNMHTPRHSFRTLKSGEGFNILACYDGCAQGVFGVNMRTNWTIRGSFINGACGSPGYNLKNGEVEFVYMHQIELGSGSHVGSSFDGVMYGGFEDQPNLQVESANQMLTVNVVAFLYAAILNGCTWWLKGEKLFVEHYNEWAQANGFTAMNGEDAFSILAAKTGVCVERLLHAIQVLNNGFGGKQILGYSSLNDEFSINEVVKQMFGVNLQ

This assay has as its target HCoV-229E 3CL protease (Human coronavirus 229E, UniProt P0C6U2). Put plainly: FRET based protease assay, HCoV-229E 3CL. In kind it is biochemical. Particulars: 229E IC50, 6 nM H229E-CoV Chis-3CLpro, 6 μM peptide 1 substrate, 25° C., 1.5 hrs, pH 7.5.
With `CC(C)(C)NC(=O)[C@@H]1CCCC[C@H]2CNC(=O)[C@H]2C[C@@H](C#N)NC(=O)[C@@H]2[C@@H]3[C@H](CN2C1=O)C3(C)C` [Example 166], the IC50 (usually the midpoint of a concentration-inhibition curve) is 1000 to 20000 nM.
In the case of `CC(C)(C)C(=O)N[C@H]1CCCC[C@H]2CNC(=O)[C@@H]2C[C@@H](C#N)NC(=O)[C@@H]2[C@@H]3[C@H](CN2C1=O)C3(C)C` [Example 67], the IC50 was 100 to 1000 nM.
For the molecule `CC(C)(C)C(=O)N[C@H]1C/C=C/[C@H]2CNC(=O)[C@H]2C[C@@H](C#N)NC(=O)[C@@H]2[C@@H]3[C@H](CN2C1=O)C3(C)C` [Example 63], the IC50 was < 100 nM.
The same measure for `N#C[C@@H]1C[C@@H]2C(=O)NC[C@@H]2CCCC[C@H](NS(=O)(=O)c2ccc(F)cc2F)C(=O)N2C[C@@H]3CCC[C@@H]3[C@H]2C(=O)N1` [Example 155]: < 100 nM.
